Patent US6509377B1, “Use of a 2-hydroxy-4-trifluoromethylbenzoic acid derivatives as inhibitors of the activation of the nuclear transcription factor NF-κB” (J. Uriach & Cia, S.A., priority 1999, dated 2003)

Assays:
COX-2 = COX-2 expression induced by LPS in human PBMC (immunoblot); assay type: cell-based; details: LPS 10 μg/ml, 19 hours, 0.1-5 mM
Description: Mononuclear cells (PBMC) were obtained from blood of healthy donors from the Hospital de Sant Pau, (Barcelona) who had not taken any antiinflammatory drug during a period of not less than 2 weeks before blood extraction. Starting from a volume of about 80 ml of heparinized human blood (10 U/ml), this was diluted (1:1) with PBS (pH 7.4; Dulbecco) without calcium, magnesium nor sodium bicarbonate. 15 ml of Ficoll solution (d=1.077 at 20° C.; Biochrom KG) were placed in 50-ml Falcon tubes. To this solution a volume of about 25 ml per tube of the blood previously diluted with PBS was carefully added and the tubes were then centrifuged at 1,200 g for 20 minutes. Mononudear cells concentrate on a whitish interphase between the plasma and the Ficoll solution. This interphase was collected with a Pasteur pipette and was diluted 1:1 with PBS. It was then centrifuged at 300 g, 10 min. The resulting pellet was resuspended in 50 ml PBS and was again centrifuged at 200 g for 10 min in order to remove platelet contamination. Finally, the resulting pellet was resuspended in 20 ml RPMI-1640 culture medium (GibcoBRL) supplemented with 10% fetal calf serum.
Cells were diluted at a concentration of 2.5 million/ml with RPMI medium containing 10% fetal calf serum and were incubated (37° C., 5% CO2) 19 hours in 6-well plates (2 ml/well, 5 million PBMC). […]

TNF-α = TNF-α production induced by LPS in human PBMC (enzymatic immunoassay); assay type: cell-based; details: LPS 10 μg/ml, 19 hours
Description: Mononuclear cells (PBMC) were obtained from blood of healthy donors from the Hospital de Sant Pau (Barcelona) following the procedure described in example 3. Cells were diluted at a concentration of 2 million/ml in RPMI medium supplemented with 10% fetal calf serum and were incubated (37° C., 5% CO2) with triflusal, HTB or vehicle (DMSO) in the presence of 10 μg/ml E.coli lipopolysaccharide (LPS, 026:B6 serotype; Sigma), for 19 hours. The cell suspension was then centrifuged at 2,000 g for 10 minutes at 4° C., and the resulting supernatant was stored at −70° C. for later analysis. The cytokine content was determined by enzymatic immunoassay, after 1/100 dilution of the samples.

## O=C(O)c1ccc(C(F)(F)F)cc1O [HTB, 2-hydroxy-4-trifluoromethylbenzoic acid]
COX-2
  inhibition of COX-2 expression: concentration-dependently inhibit
TNF-α; 0.3 mM
  inhibition of LPS-induced TNF-α production: almost completely inhibit
TNF-α; 1 mM
  inhibition of LPS-induced TNF-α production: almost completely inhibit

## CC(=O)Oc1cc(C(F)(F)F)ccc1C(=O)O [triflusal, 2-Acetyloxy-4-trifluoromethylbenzoic acid, reference compound]
COX-2
  inhibition of COX-2 expression: concentration-dependently inhibit
TNF-α; 0.3 mM
  inhibition of LPS-induced TNF-α production: almost completely inhibit
TNF-α; 1 mM
  inhibition of LPS-induced TNF-α production: almost completely inhibit
